Data taken from patent publication US10723711B2, “1,1,1-trifluoro-3-hydroxypropan-2-yl carbamate derivatives and 1,1,1-trifluoro-4-hydroxybutan-2-yl carbamate derivatives as MAGL inhibitors” (PFIZER INC., priority 2015, dated 2020).
Where two headings read alike, the source gives them in different places.

Assays:
Format in all cases: biochemical
[1] = target: T1, human recombinant Monoacylglycerol Lipase (Homo sapiens, UniProt Q99685); test: MAGL inhibition enzymatic assay, fluorogenic substrate 7-HCA, IC50 at T=0 min or after 30 minute incubation (T=30 min); details: geometric mean of 2-4 determinations unless otherwise indicated
T1 sequence (Q99685 1-303): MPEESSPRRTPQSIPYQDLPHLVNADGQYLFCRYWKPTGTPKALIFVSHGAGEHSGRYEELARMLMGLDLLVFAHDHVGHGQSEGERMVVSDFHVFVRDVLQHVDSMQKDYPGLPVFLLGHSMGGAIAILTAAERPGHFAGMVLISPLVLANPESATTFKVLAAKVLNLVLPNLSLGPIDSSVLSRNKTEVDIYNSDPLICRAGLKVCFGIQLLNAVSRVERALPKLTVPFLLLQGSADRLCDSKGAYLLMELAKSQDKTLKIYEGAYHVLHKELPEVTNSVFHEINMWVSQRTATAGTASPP
Description: An equal volume of 7-HCA in assay buffer with 10% DMSO was added either immediately (T=0 min) or after a 30 minute incubation (T=30 min) to initiate the reaction. […] After these dilutions, the final concentration of the test compound ranged from 3 μM to 0.03 nM. […] IC50 values were generated based on a four parameter fit model using ABASE software from IDBS.

[2] = target: T1, human recombinant Monoacylglycerol Lipase; test: MAGL inactivation, enzyme progress curves, kinact/KI; details: from enzyme progress curves, T = 0 min protocol; geometric mean of 2-4 determinations unless otherwise indicated
Description: Assessment of MAGL inhibition utilizes human recombinant Monoacylglycerol Lipase and the fluorogenic substrate 7-hydroxycoumarinyl arachidonate (7-HCA, Biomol ST-502). 400 nL of a test compound at decreasing concentration (ranging from 150 μM down to 1.5 nM) was spotted into a 384-well back plate (PerkinElmer, 6007279) using a Labcyte Echo, followed by addition of 10 μL of MAGL enzyme in assay buffer (50 mM HEPES, pH 7.4, 100 mM NaCl, 5 mM MgCl2, 0.1% Triton X-100 and 25% glycerin). An equal volume of 7-HCA in assay buffer with 10% DMSO was added either immediately (T=0 min) or after a 30 minute incubation (T=30 min) to initiate the reaction. The final concentration of MAGL enzyme was […] and 7-HCA substrate was 5 μM. After these dilutions, the final concentration of the test compound ranged from 3 μM to 0.03 nM. The reaction was allowed to progress for 60 minutes, after which the plate was read at an Ex/Em of 340/465. Percent inhibitions were calculated based on control wells containing no compound (0% inhibition) and a control compound (e.g., a MAGL inhibitor whose activity is known or was previously reported in the literature, such as one with about 100% inhibition). IC50 values were generated based on a four parameter fit model using ABASE software from IDBS. See e.g., Wang, Y. et al., “A Fluorescence-Based Assay for Monoacylglycerol Lipase Compatible with Inhibitor Screening,” Assay and Drug Development Technologies, 2008, Vol. 6 (3) pp 387-393 (reporting an assay for measuring MAGL activity).
To measure MAGL inactivation, the same protocol for the (T=0 min) MAGL inhibition IC50 assay was performed with data collected every minute to acquire enzyme progress curves at decreasing concentrations of compound.

human recombinant FAAH = target: T2, human recombinant FAAH (Homo sapiens, UniProt O00519); test: FAAH inhibition enzymatic assay, fluorescent substrate Arachidonoyl-AMC, 30 minute incubation; details: T = 30 min (30 minute incubation); geometric mean of 2-4 determinations unless otherwise indicated
T2 construct: purchased Cayman 10010183
T2 sequence (O00519 1-579): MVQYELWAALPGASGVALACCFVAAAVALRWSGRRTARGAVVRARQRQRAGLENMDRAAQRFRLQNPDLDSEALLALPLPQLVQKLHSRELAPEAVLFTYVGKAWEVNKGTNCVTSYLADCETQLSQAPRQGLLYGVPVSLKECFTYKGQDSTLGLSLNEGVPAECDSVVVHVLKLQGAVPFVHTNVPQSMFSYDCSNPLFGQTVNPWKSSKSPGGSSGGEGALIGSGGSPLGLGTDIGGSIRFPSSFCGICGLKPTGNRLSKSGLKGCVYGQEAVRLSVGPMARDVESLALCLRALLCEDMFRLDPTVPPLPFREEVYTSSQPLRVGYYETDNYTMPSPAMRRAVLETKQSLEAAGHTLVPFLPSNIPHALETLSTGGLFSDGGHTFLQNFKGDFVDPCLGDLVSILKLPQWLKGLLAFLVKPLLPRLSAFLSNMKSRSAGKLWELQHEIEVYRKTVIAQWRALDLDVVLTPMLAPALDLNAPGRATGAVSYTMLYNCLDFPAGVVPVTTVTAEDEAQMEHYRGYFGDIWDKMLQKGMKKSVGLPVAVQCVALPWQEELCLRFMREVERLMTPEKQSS
Description: Assessment of FAAH inhibition utilizes human recombinant FAAH and the fluorescent substrate, Arachidonoyl-AMC. 400 nL of a test compound at decreasing concentrations was spotted into a 384-well back plate (PerkinElmer, 6007279) using a Labcyte Echo, followed by addition of 10 μl of FAAH enzyme (Cayman 10010183) in assay buffer (50 mM Tris, pH 9.0, 1 mM EDTA). After a 30 minute incubation at room temperature, 10 μL of Arachidonyl-AMCA was added in assay buffer with 16% DMSO. Final concentration of FAAH enzyme was 0.0125 Units and AAMCA substrate was used at the Km of 5 μM. […] The reaction was allowed to progress for 60 minutes, after which the plate was read on a Molecular Devices FlexStation reader at an Ex/Em of 355/460. Percent inhibitions were calculated based on controls wells containing either no compound (0% inhibition) or a control compound (e.g., an FAAH inhibitor whose activity is known or was previously reported in the literature, such as one with about 100% inhibition). IC50 values were generated based on a four parameter fit model using ABASE software from IDBS.

[3] = T = 0 min (substrate added immediately), read-out: MAGL (T = 0 min) IC50
[4] = T = 30 min (30 minute incubation), read-out: MAGL (T = 30 min) IC50

IC50 [1, 3] [nM]	IC50 [1, 4] [nM]	MAGL kinact/KI [2]	IC50 (human recombinant FAAH) [nM]	SMILES
145	13	3478 1/s per M	> 30000	CC(c1ccc(F)cc1)N1CCOC2(CCN(C(=O)O[C@H](CO)C(F)(F)F)CC2)C1 (mixture of isomers) [Example 43]
192	20	1897 1/s per M	> 30000	O=C(O)C(F)(F)F.O=C(O[C@H](CO)C(F)(F)F)N1CCC2(CC1)CC(c1ccc(F)cn1)CO2 (mixture of isomers) [Example 97, (2R)-1,1,1-Trifluoro-3-hydroxypropan-2-yl 3-(5-fluoropyridin-2-yl)-1-oxa-8-azaspiro[4.5]decane-8-carboxylate, trifluoroacetate salt]
180	21	2454 1/s per M	6540	O=C(O[C@H](CO)C(F)(F)F)N1CCC2(CC1)CC(N1Cc3ccccc3S1(=O)=O)CO2 (mixture of isomers) [Example 101, (2R)-1,1,1-trifluoro-3-hydroxypropan-2-yl 3-(1,1-dioxido-1,2-benzothiazol-2(3H)-yl)-1-oxa-8-azaspiro[4.5]decane-8-carboxylate]
215	26	1336 1/s per M	18300	Cc1ccc(CC2COC3(CCN(C(=O)O[C@H](CO)C(F)(F)F)CC3)C2)nc1 (mixture of isomers) [Example 102, (2R)-1,1,1-Trifluoro-3-hydroxypropan-2-yl 3-[(5-methylpyridin-2-yl)methyl]-1-oxa-8-azaspiro[4.5]decane-8-carboxylate]
64	7	14232 1/s per M	> 30000	CN(C1COC2(CCN(C(=O)O[C@H](CO)C(F)(F)F)CC2)C1)S(=O)(=O)C1CCCC1 (mixture of isomers) [Example 112]
139	10	6254 1/s per M	> 25500	CN(C1COC2(CCN(C(=O)O[C@H](CO)C(F)(F)F)CC2)C1)S(=O)(=O)C1CCC1 (mixture of isomers) [Example 113]
163	15	6263 1/s per M	> 30000	CN(C1COC2(CCN(C(=O)O[C@H](CO)C(F)(F)F)CC2)C1)S(=O)(=O)c1cccnc1 (mixture of isomers) [Example 114]
341	27	2917 1/s per M	> 30000	CN(C1COC2(CCN(C(=O)O[C@H](CO)C(F)(F)F)CC2)C1)S(=O)(=O)c1cncnc1 (mixture of isomers) [Example 115]
2	0.4	172844 1/s per M	> 24800	O=C(O[C@H](CO)C(F)(F)F)N1CCC2(CC1)CC(c1cccc(OC(F)(F)F)c1)CO2 (mixture of isomers) [Example 118]
32	3	23176 1/s per M	3570	O=C(O[C@H](CO)C(F)(F)F)N1CCC2(CC1)CC(c1cccc(Cl)c1)CO2 (mixture of isomers) [Example 119]
166	21	1516 1/s per M	> 30000	O=C(O[C@H](CO)C(F)(F)F)N1CCC2(CC1)CC(c1ccc(F)nc1)CO2 (mixture of isomers) [Example 120]
149	20	1207 1/s per M	14700	COc1ccc(C2COC3(CCN(C(=O)O[C@H](CO)C(F)(F)F)CC3)C2)nc1 (mixture of isomers) [Example 121]
349	30	–	24600	Cc1ccc(C2COC3(CCN(C(=O)O[C@H](CO)C(F)(F)F)CC3)C2)cn1 (mixture of isomers) [Example 123]
86	11	4241 1/s per M	17400	O=C(O[C@H](CO)C(F)(F)F)N1CCC2(CC1)CC(N1CCc3ccccc3S1(=O)=O)CO2 (mixture of isomers) [Example 131]
95	8	2397 1/s per M	> 30000	O=C(OC(C(F)(F)F)C(F)(F)CO)N1CCC2(CC1)CN(S(=O)(=O)c1ccc(F)cc1)CCO2 (racemic) [Example 19, 1,1,1,3,3-Pentafluoro-4-hydroxybutan-2-yl 4-[(4-fluorophenyl)sulfonyl]-1-oxa-4,9-diazaspiro[5.5]undecane-9-carboxylate]
132	12	3736 1/s per M	13200	O=C(O[C@@H]([C@@H](O)C(F)(F)F)C(F)(F)F)N1C[C@@H]2[C@H](C1)[C@H]2c1ccn(-c2ccc(F)cc2)n1 (racemic) [Example 36]
179	17	3701 1/s per M	> 30000	CC(c1ccc(F)cc1)N1CCOC2(CCN(C(=O)O[C@H](CO)C(F)(F)F)CC2)C1 (single isomer, unassigned) [Example 44]
191	18	3134 1/s per M	> 30000	CC(c1ccc(F)cc1)N1CCOC2(CCN(C(=O)O[C@H](CO)C(F)(F)F)CC2)C1 (single isomer, unassigned) [Example 45]
16	1	131495 1/s per M	8720	O=C(O[C@H](CO)C(F)(F)F)N1CCC2(CC1)CC(c1ccccc1)CO2 (single isomer, unassigned) [Example 95]
334	30	–	> 30000	O=C(O[C@H](CO)C(F)(F)F)N1CCC2(CC1)CC(n1cccn1)CO2 (single isomer, unassigned) [Example 103]

SMILES	IC50 [1, 3] [nM]	IC50 [1, 4] [nM]	MAGL kinact/KI [2]	IC50 (human recombinant FAAH) [nM]
N#Cc1cccc(C2COC3(CCN(C(=O)O[C@H](CO)C(F)(F)F)CC3)C2)c1 (mixture of isomers) [Example 147]	60	6	5973 1/s per M	> 26400
